Measurements published in US10865216B2, “Tricyclic Gyrase inhibitors” (MERCK SHARP & DOHME CORP., priority 2012, dated 2020).
Values after ≈ are worked out from the molar mass of the structure shown.

System: S. aureus ATCC 13709
Experiment: MIC, S. aureus ATCC 13709
Type: cell-based
Details: S. aureus; Alamar Blue read after overnight incubation at 35° C.

SMILES | MIC Sa
CNc1cc(F)cc2c1[nH]c1nc(Oc3cnc(N)nc3)nc(N3C4CCC3CC(N)C4)c12 (stereo not drawn) [Compound 4.183] | 1 µg/mL (≈ 2.22 µM)
CNc1cccc2c1[nH]c1nc(Sc3cnc4ccc[n+]([O-])c4c3)nc(N3CC4C(N)C4C3)c12 (stereo not drawn) [Compound 1.13] | ≤0.5 µg/mL
CNc1cc(F)cc2c1[nH]c1nc(Oc3cncnc3)nc(N3CC4C[C@@H](N)C4C3)c12 (stereo partly drawn) [Compound 4.028] | ≤0.5 µg/mL
CNc1cc(F)cc2c1[nH]c1nc(Oc3cncc(C(N)=O)c3)nc(N3CC4C(N)C4C3)c12 (stereo not drawn) [Compound 4.237] | ≤0.5 µg/mL
CNc1cc(F)cc2c1[nH]c1nc(Oc3cncnc3)nc(N3CC4CC4(N)C3)c12 (stereo not drawn) [Compound 4.005] | ≤0.5 µg/mL
CNc1cccc2c1[nH]c1nc(Sc3cnc4ccc[n+]([O-])c4c3)nc(N3CC4C(N)C4C3)c12 (stereo not drawn) [Compound 1.23] | ≤0.5 µg/mL
CNc1cc(F)cc2c1[nH]c1nc(Oc3cnc(C)nc3)nc(N3C[C@H](N)C[C@@H]3C)c12 [Compound 4.115] | 1 µg/mL (≈ 2.37 µM)
CNc1cc(F)cc2c1[nH]c1nc(Oc3cncnc3)nc(N3CC(C)C(CN)C3)c12 (stereo not drawn) [Compound 4.023] | ≤0.5 µg/mL
COc1cccc2c1[nH]c1nc(Oc3cncnc3)nc(N3CCC(NC(C)=O)C3)c12 (stereo not drawn) [Compound 2.11] | 4 µg/mL (≈ 9.54 µM)
CNc1cc(C)cc2c1[nH]c1nc(Oc3cnc(C)nc3)nc(N3CC4C(N)C4C3)c12 (stereo not drawn) [Compound 6.26] | ≤0.5 µg/mL
CNc1cc(F)cc2c1[nH]c1nc(Oc3cnc(SC)nc3)nc(N3CC4CC(N)C4C3)c12 (stereo not drawn) [Compound 4.201] | ≤0.5 µg/mL
CNc1cc(F)cc2c1[nH]c1nc(Oc3cnc(C4CC4)nc3)nc(N3CC4CCC(CN)C4C3)c12 (stereo not drawn) [Compound 4.253] | ≤0.5 µg/mL
CNc1cc(F)cc2c1[nH]c1nc(Oc3cnc4cccnc4c3)nc(N3CC4(CC4N)C3)c12 (stereo not drawn) [Compound 4.042] | ≤0.5 µg/mL
CNc1cccc2c1[nH]c1nc(Sc3cnc4cccnc4c3)nc(N3CC4C(N)C4C3)c12 (stereo not drawn) [Compound 1.24] | ≤0.5 µg/mL
CNc1cc(F)cc2c1[nH]c1nc(Oc3ccnnc3)nc(N3CC(N)C4(CC4)C3)c12 (stereo not drawn) [Compound 4.230] | 32 µg/mL (≈ 76.1 µM)
CNc1cc(F)cc2c1[nH]c1nc(Oc3cncc([S+](C)[O-])c3)nc(N3CC4C(N)C4C3)c12 (stereo not drawn) [Compound 4.351] | ≤0.5 µg/mL
CNc1cc(F)cc2c1[nH]c1nc(Oc3cnc(N4CCOCC4)nc3)nc(N3CCC(CN)C3)c12 (stereo not drawn) [Compound 4.215] | ≤0.5 µg/mL
CNc1cc(F)cc2c1[nH]c1nc(Oc3cnc(N)nc3)nc(N3CC4CC(N)C4C3)c12 (stereo not drawn) [Compound 4.190] | ≤0.5 µg/mL

Same assay, conditions: Staphylococcus aureus, ATCC13709, S. aureus; Alamar Blue read after overnight incubation at 35° C.; read-out: MIC Sa

SMILES | MIC
CNc1nccc2c1[nH]c1nc(Oc3cncc(F)c3)nc(N3CCC4(CC4N)C3)c12 (stereo not drawn) [Compound 7.07] | 16 µg/mL (≈ 38.1 µM)
CNc1cccc2c1[nH]c1nc(Sc3cnc4ccc[n+]([O-])c4c3)nc(N3CC[C@H](N)C3)c12 [Compound 1.14] | ≤ 0.5 µg/mL
CCNc1cccc2c1[nH]c1nc(Sc3cnc4cccnc4c3)nc(N3CC4C(N)C4C3)c12 (stereo not drawn) [Compound 1.11] | ≤ 0.5 µg/mL

System: E. coli ATCC 25922
Experiment: MIC, E. coli ATCC 25922
Type: cell-based
Details: E. coli; Alamar Blue read after overnight incubation at 35° C.

SMILES | MIC Ec
CNc1cc(F)cc2c1[nH]c1nc(Oc3cnc(N)nc3)nc(N3C4CCC3CC(N)C4)c12 (stereo not drawn) [Compound 4.183] | 8 µg/mL (≈ 17.8 µM)
CNc1cc(F)cc2c1[nH]c1nc(Oc3cncnc3)nc(N3CC4C[C@@H](N)C4C3)c12 (stereo partly drawn) [Compound 4.028] | ≤0.5 µg/mL
CNc1cc(F)cc2c1[nH]c1nc(Oc3cncc(C(N)=O)c3)nc(N3CC4C(N)C4C3)c12 (stereo not drawn) [Compound 4.237] | 2 µg/mL (≈ 4.46 µM)
CNc1cc(F)cc2c1[nH]c1nc(Oc3cncnc3)nc(N3CC4CC4(N)C3)c12 (stereo not drawn) [Compound 4.005] | ≤0.5 µg/mL
CNc1cccc2c1[nH]c1nc(Sc3cnc4ccc[n+]([O-])c4c3)nc(N3CC4C(N)C4C3)c12 (stereo not drawn) [Compound 1.23] | ≤0.5 µg/mL
CNc1cc(F)cc2c1[nH]c1nc(Oc3cnc(C)nc3)nc(N3C[C@H](N)C[C@@H]3C)c12 [Compound 4.115] | 8 µg/mL (≈ 18.9 µM)
CNc1cc(F)cc2c1[nH]c1nc(Oc3cncnc3)nc(N3CC(C)C(CN)C3)c12 (stereo not drawn) [Compound 4.023] | 1 µg/mL (≈ 2.37 µM)
COc1cccc2c1[nH]c1nc(Oc3cncnc3)nc(N3CCC(NC(C)=O)C3)c12 (stereo not drawn) [Compound 2.11] | >64 µg/mL
CNc1cc(C)cc2c1[nH]c1nc(Oc3cnc(C)nc3)nc(N3CC4C(N)C4C3)c12 (stereo not drawn) [Compound 6.26] | 1 µg/mL (≈ 2.4 µM)
CNc1cc(F)cc2c1[nH]c1nc(Oc3cnc(SC)nc3)nc(N3CC4CC(N)C4C3)c12 (stereo not drawn) [Compound 4.201] | ≤0.5 µg/mL
CNc1cc(F)cc2c1[nH]c1nc(Oc3cnc(C4CC4)nc3)nc(N3CC4CCC(CN)C4C3)c12 (stereo not drawn) [Compound 4.253] | ≤0.5 µg/mL
CNc1cc(F)cc2c1[nH]c1nc(Oc3cnc4cccnc4c3)nc(N3CC4(CC4N)C3)c12 (stereo not drawn) [Compound 4.042] | ≤0.5 µg/mL
CNc1cccc2c1[nH]c1nc(Sc3cnc4cccnc4c3)nc(N3CC4C(N)C4C3)c12 (stereo not drawn) [Compound 1.24] | 1 µg/mL (≈ 2.2 µM)
CNc1cc(F)cc2c1[nH]c1nc(Oc3ccnnc3)nc(N3CC(N)C4(CC4)C3)c12 (stereo not drawn) [Compound 4.230] | >16 µg/mL
CNc1cc(F)cc2c1[nH]c1nc(Oc3cncc([S+](C)[O-])c3)nc(N3CC4C(N)C4C3)c12 (stereo not drawn) [Compound 4.351] | 2 µg/mL (≈ 4.28 µM)
CNc1cc(F)cc2c1[nH]c1nc(Oc3cnc(N4CCOCC4)nc3)nc(N3CCC(CN)C3)c12 (stereo not drawn) [Compound 4.215] | 4 µg/mL (≈ 8.1 µM)
CNc1cc(F)cc2c1[nH]c1nc(Oc3cnc(N)nc3)nc(N3CC4CC(N)C4C3)c12 (stereo not drawn) [Compound 4.190] | 1 µg/mL (≈ 2.3 µM)

Same assay, conditions: Escherichia coli, ATCC25922, E. coli; Alamar Blue read after overnight incubation at 35° C.; read-out: MIC Ec

SMILES | MIC
CNc1cccc2c1[nH]c1nc(Sc3cnc4ccc[n+]([O-])c4c3)nc(N3CC4C(N)C4C3)c12 (stereo not drawn) [Compound 1.13] | ≤ 0.5 µg/mL
CNc1nccc2c1[nH]c1nc(Oc3cncc(F)c3)nc(N3CCC4(CC4N)C3)c12 (stereo not drawn) [Compound 7.07] | > 64 µg/mL
CNc1cccc2c1[nH]c1nc(Sc3cnc4ccc[n+]([O-])c4c3)nc(N3CC[C@H](N)C3)c12 [Compound 1.14] | 1 µg/mL (≈ 2.18 µM)
CCNc1cccc2c1[nH]c1nc(Sc3cnc4cccnc4c3)nc(N3CC4C(N)C4C3)c12 (stereo not drawn) [Compound 1.11] | 8 µg/mL (≈ 17.1 µM)
